From ChEMBL document CHEMBL3124838, “Discovery of 6-aryl-azabenzimidazoles that inhibit the TBK1/IKK-ε kinases” (Bioorg Med Chem Lett, 2014)

Columns and labels:
[1] = target: Tyrosine-protein kinase Lyn (Homo sapiens) (UniProt P07948); assay: Inhibition of human LYN assessed as residual activity at 1 uM relative to control
[2] = tested on: Epidermal growth factor receptor (Homo sapiens), P00533 [L858R,T790M]; assay: Inhibition of human EGFR T790M/L858R double mutant assessed as residual activity at 1 uM relative to control; type: protein assay
[3] = target: MAP kinase-interacting serine/threonine-protein kinase 2 (Homo sapiens) (UniProt Q9HBH9); assay: Inhibition of human MNK2 assessed as residual activity at 1 uM relative to control
Sequence of MAP kinase-interacting serine/threonine-protein kinase 2 (Homo sapiens) (Q9HBH9 whole entry, looked up): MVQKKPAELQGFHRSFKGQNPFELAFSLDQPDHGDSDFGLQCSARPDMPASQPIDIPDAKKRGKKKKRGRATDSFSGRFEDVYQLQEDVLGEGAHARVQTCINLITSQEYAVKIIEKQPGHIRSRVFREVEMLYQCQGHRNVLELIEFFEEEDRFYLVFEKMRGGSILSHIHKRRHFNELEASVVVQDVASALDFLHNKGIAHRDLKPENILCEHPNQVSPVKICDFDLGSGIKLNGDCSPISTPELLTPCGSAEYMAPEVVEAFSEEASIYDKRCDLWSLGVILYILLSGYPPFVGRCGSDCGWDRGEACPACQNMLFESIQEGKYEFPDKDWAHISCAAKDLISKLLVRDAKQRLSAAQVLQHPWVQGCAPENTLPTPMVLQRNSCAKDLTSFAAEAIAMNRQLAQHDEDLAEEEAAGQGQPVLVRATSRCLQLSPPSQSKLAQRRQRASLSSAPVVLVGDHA

[4] = target: T1, Phosphatidylinositol 5-phosphate 4-kinase type-2 alpha (Homo sapiens) (UniProt P48426); assay: Inhibition of human PIP4K2alpha assessed as residual activity at 1 uM relative to control
T1 sequence (whole entry): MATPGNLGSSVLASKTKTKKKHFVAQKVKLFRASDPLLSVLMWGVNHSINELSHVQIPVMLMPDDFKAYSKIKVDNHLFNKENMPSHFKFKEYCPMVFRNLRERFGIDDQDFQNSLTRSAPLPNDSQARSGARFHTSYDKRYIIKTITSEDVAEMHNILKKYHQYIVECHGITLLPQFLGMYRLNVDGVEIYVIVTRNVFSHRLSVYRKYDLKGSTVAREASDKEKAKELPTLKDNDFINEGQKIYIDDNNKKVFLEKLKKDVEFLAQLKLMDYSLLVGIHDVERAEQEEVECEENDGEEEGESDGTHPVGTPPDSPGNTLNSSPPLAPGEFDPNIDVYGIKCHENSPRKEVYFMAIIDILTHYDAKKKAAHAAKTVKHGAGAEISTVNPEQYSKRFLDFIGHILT

[5] = target: CDK2/Cyclin A2 (Homo sapiens) (UniProt P24941+P20248); assay: Inhibition of human CDK2/cyclin A assessed as residual activity at 1 uM relative to control; type: protein-complex assay
[6] = target: Tyrosine-protein kinase Lck (Homo sapiens) (UniProt P06239); assay: Inhibition of human activated LCK assessed as residual activity at 1 uM relative to control
[7] = target: Protein kinase C theta type (Homo sapiens) (UniProt Q04759); assay: Inhibition of human PKC-theta assessed as residual activity at 1 uM relative to control
[8] = target: Casein kinase II subunit alpha' (Homo sapiens) (UniProt P19784); assay: Inhibition of human CK2-alpha2 assessed as residual activity at 1 uM relative to control
Sequence of Casein kinase II subunit alpha' (Homo sapiens) (P19784 whole entry, looked up): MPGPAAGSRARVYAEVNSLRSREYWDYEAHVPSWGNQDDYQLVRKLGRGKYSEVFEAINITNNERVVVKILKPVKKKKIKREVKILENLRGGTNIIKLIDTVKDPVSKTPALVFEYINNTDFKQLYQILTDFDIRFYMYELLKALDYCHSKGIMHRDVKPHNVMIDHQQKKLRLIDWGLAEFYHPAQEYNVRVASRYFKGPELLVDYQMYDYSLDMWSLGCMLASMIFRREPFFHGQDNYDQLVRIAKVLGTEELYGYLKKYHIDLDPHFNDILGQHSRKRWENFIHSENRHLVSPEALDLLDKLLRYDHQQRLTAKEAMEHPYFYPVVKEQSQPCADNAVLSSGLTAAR

[9] = target: Dual specificity mitogen-activated protein kinase kinase 1 (Homo sapiens) (UniProt Q02750); assay: Inhibition of human MEK1 assessed as residual activity at 1 uM relative to control
[10] = target: Tyrosine-protein kinase Blk (Homo sapiens) (UniProt P51451); assay: Inhibition of human BLK assessed as residual activity at 1 uM relative to control
Sequence of Tyrosine-protein kinase Blk (Homo sapiens) (P51451 2-505 limits assumed): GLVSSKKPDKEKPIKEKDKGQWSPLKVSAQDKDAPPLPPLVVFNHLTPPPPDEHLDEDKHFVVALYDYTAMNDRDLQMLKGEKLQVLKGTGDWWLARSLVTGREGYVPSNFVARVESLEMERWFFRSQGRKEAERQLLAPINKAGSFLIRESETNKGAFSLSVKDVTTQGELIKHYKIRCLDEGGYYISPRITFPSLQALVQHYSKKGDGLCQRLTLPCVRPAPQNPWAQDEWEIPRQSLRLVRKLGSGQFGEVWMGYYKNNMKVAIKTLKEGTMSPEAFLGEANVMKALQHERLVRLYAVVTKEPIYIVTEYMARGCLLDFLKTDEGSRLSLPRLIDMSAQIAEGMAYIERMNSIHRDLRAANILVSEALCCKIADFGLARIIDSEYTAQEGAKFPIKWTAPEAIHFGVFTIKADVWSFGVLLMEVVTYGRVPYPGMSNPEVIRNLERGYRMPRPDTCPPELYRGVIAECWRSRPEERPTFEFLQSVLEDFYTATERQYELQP

[11] = target: 3-phosphoinositide-dependent protein kinase 1 (Homo sapiens) (UniProt O15530); assay: Inhibition of human PDK1 assessed as residual activity at 1 uM relative to control
[12] = target: 5'-AMP-activated protein kinase catalytic subunit alpha-2 (Homo sapiens) (UniProt P54646); assay: Inhibition of human AMPKalpha2 assessed as residual activity at 1 uM relative to control
Sequence of 5'-AMP-activated protein kinase catalytic subunit alpha-2 (Homo sapiens) (P54646 whole entry, looked up): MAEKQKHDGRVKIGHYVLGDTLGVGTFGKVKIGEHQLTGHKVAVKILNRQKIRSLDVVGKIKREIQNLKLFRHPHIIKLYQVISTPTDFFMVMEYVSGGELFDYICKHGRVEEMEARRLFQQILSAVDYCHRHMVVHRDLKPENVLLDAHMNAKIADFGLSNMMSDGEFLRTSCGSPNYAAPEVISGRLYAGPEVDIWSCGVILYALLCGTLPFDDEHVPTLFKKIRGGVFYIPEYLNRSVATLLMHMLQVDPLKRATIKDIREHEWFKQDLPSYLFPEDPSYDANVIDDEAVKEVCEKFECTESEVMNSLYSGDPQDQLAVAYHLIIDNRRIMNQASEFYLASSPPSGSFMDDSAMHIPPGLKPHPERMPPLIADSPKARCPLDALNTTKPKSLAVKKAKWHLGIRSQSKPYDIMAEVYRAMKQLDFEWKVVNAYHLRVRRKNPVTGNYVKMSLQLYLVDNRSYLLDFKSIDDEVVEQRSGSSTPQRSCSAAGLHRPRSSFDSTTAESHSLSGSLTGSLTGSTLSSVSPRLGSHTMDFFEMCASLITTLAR

[13] = target: T2, Cytoplasmic tyrosine-protein kinase BMX (Homo sapiens) (UniProt P51813); assay: Inhibition of human BMX assessed as residual activity at 1 uM relative to control
T2 sequence (whole entry): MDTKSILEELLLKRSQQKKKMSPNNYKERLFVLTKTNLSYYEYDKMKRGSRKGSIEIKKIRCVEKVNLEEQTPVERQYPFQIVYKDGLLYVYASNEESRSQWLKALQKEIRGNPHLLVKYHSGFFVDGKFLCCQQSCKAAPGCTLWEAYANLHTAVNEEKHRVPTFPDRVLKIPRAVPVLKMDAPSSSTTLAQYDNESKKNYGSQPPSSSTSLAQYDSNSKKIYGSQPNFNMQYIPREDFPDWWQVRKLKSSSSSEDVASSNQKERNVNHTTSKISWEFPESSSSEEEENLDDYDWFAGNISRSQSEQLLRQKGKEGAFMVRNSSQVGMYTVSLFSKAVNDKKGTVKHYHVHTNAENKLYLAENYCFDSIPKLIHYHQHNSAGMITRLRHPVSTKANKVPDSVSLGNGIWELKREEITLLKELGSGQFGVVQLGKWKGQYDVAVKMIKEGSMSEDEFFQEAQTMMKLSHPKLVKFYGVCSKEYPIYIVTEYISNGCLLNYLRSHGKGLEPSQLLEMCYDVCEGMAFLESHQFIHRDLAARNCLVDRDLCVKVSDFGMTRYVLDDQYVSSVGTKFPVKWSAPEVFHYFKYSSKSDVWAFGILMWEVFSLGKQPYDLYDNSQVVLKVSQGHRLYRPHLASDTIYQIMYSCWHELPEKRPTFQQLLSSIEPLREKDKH

[14] = target: Hepatocyte growth factor receptor (Homo sapiens) (UniProt P08581); assay: Inhibition of human MET assessed as residual activity at 1 uM relative to control
[15] = target: Mitogen-activated protein kinase 14 (Homo sapiens) (UniProt Q16539); assay: Inhibition of human SAPK2alpha assessed as residual activity at 1 uM relative to control
[16] = target: PI3K p110 beta/p85 alpha (Homo sapiens) (UniProt P27986+P42338); assay: Inhibition of human PI3K p110beta/p85alpha assessed as residual activity at 1 uM relative to control; type: protein-complex assay
[17] = target: Insulin receptor-related protein (Homo sapiens) (UniProt P14616); assay: Inhibition of human IRR assessed as residual activity at 1 uM relative to control
Sequence of Insulin receptor-related protein (Homo sapiens) (P14616 27-742 limits assumed): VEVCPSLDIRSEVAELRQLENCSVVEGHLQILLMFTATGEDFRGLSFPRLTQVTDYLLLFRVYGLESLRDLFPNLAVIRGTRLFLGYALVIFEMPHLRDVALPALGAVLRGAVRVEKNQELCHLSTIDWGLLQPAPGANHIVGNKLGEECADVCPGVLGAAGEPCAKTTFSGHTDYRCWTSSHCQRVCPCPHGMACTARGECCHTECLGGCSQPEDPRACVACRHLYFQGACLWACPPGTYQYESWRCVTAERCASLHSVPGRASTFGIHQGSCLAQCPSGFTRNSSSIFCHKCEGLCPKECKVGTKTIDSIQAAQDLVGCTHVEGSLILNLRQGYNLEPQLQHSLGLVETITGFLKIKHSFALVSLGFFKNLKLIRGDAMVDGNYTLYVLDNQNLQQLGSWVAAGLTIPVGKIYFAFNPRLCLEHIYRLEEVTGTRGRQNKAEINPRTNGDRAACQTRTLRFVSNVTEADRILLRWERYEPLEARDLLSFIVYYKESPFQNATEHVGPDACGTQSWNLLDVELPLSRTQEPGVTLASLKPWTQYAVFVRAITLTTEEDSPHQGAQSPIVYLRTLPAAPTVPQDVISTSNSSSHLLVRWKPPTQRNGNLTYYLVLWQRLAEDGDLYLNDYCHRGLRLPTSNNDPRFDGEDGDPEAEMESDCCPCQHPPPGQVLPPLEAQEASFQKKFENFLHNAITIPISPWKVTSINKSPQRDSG
Sequence of Insulin receptor-related protein (Homo sapiens) (P14616 747-1297 limits assumed): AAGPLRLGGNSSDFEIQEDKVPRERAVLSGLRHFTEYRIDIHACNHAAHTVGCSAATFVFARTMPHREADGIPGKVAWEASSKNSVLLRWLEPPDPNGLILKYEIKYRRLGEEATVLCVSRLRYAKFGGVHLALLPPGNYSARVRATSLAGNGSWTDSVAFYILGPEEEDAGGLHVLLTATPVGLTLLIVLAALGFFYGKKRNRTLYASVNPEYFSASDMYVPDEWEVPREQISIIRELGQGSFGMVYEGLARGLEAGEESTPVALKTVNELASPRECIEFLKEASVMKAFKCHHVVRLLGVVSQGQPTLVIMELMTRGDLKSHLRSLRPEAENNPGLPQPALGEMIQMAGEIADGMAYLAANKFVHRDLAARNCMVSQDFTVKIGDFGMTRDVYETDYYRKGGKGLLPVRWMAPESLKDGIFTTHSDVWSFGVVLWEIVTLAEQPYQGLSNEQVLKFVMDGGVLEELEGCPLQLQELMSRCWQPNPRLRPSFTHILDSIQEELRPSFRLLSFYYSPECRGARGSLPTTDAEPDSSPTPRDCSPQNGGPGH

[18] = target: Serine/threonine-protein kinase PAK 1 (Homo sapiens) (UniProt Q13153); assay: Inhibition of human PAK1 assessed as residual activity at 1 uM relative to control
Sequence of Serine/threonine-protein kinase PAK 1 (Homo sapiens) (Q13153 whole entry): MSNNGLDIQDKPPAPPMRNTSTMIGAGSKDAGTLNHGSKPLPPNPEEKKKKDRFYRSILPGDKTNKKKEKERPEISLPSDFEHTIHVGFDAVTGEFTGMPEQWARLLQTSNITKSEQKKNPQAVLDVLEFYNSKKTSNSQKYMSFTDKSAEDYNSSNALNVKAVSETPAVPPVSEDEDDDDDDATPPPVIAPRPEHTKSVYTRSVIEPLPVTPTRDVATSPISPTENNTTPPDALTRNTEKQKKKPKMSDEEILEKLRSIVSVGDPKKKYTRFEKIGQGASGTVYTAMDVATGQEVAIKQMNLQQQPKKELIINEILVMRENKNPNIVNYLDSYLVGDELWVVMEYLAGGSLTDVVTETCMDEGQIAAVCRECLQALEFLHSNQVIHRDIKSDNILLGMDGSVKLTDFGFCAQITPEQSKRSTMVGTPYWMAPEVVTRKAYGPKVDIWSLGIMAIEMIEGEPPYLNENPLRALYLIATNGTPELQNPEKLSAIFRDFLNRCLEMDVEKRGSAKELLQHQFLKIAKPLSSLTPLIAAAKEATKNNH

[19] = target: Insulin-like growth factor 1 receptor (Homo sapiens) (UniProt P08069); assay: Inhibition of human activated IGF-1R assessed as residual activity at 1 uM relative to control
Sequence of Insulin-like growth factor 1 receptor (Homo sapiens) (P08069 31-736 limits assumed): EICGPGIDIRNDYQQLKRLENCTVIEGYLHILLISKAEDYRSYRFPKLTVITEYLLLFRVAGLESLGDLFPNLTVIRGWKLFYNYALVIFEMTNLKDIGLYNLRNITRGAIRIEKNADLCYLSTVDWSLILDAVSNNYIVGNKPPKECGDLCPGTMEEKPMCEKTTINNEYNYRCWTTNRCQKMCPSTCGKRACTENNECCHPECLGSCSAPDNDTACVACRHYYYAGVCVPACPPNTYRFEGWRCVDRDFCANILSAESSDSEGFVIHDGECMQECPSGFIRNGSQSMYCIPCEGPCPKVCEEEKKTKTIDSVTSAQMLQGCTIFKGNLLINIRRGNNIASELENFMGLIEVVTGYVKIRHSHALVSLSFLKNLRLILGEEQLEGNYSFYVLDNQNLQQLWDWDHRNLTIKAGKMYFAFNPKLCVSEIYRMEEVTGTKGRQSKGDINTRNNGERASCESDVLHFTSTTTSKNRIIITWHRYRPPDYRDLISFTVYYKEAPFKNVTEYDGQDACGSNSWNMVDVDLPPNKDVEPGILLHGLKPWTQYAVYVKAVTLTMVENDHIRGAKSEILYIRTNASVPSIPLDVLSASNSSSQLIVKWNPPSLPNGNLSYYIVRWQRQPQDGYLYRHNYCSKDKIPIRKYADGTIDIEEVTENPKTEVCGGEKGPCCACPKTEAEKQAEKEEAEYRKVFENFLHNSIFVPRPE
Sequence of Insulin-like growth factor 1 receptor (Homo sapiens) (P08069 741-1367 limits assumed): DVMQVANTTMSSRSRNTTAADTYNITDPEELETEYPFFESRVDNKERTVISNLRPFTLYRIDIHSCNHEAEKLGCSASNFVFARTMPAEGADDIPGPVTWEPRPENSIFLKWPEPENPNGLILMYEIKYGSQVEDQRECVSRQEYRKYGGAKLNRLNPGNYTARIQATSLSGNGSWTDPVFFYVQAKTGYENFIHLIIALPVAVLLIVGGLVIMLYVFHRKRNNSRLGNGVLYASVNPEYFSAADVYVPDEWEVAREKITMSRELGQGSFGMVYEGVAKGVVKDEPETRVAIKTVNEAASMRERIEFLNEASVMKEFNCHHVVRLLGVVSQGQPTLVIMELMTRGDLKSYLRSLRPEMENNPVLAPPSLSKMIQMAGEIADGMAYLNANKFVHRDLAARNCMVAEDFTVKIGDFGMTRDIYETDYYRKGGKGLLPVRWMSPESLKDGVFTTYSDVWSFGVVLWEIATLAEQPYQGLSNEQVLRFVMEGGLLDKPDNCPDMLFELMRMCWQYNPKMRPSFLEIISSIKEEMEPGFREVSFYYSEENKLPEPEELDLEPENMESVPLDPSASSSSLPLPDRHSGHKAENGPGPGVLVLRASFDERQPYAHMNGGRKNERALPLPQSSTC

[20] = target: Insulin receptor (Homo sapiens) (UniProt P06213); assay: Inhibition of human IR assessed as residual activity at 1 uM relative to control

| SMILES | Activity [1] | Activity [2] | Activity [3] | Activity [4] | Activity [5] | Activity [6] | Activity [7] | Activity [8] | Activity [9] | Activity [10] | Activity [11] | Activity [12] | Activity [13] | Activity [14] | Activity [15] | Activity [16] | Activity [17] | Activity [18] | Activity [19] | Activity [20] |
| --- | --- | --- | --- | --- | --- | --- | --- | --- | --- | --- | --- | --- | --- | --- | --- | --- | --- | --- | --- | --- |
| COc1ccc(-c2nc3cc(-c4csc(C(=O)NCCC(C)C)c4)cnc3[nH]2)cc1 | 39% | 76% | 1% | 95% | 92% | 47% | 98% | 59% | 90% | 13% | 80% | 42% | 105% | 111% | 111% | 92% | 80% | 96% | 91% | 80% |
| COc1ccc(-c2nc3cc(-c4csc(C(=O)NCC(C)(C)C)c4)cnc3[nH]2)cc1 | 61% | 94% | 5% | 87% | 98% | 71% | 90% | 74% | 89% | 48% | 85% | 46% | 100% | 114% | 93% | 89% | 70% | 94% | 80% | 92% |
| COc1ccc(-c2nc3cc(-c4csc(C(=O)NCC(C)C)c4)cnc3[nH]2)cc1 | 46% | 90% | 4% | 85% | 103% | 56% | 89% | 91% | 86% | 25% | 91% | 28% | 92% | 107% | 107% | 89% | 92% | 105% | 95% | 102% |
